Data as given in ChEMBL document CHEMBL5223117, “Synthesis and biological evaluation of novel N, N'-diarylurea derivatives as potent antibacterial agents against MRSA” (Bioorg Med Chem Lett, 2022).
≈ marks a conversion by molar mass, not a printed value.

Assays:
[1] = system: Staphylococcus aureus; experiment: Selectivity ratio of MBC for bactericidal activity against methicillin resistant Staphylococcus aureus ATCC 43300 to MIC for antibacterial activity against methicillin resistant Staphylococcus aureus ATCC 43300; assay type: functional
[2] = system: Staphylococcus aureus; experiment: Antibacterial activity against methicillin sensitive Staphylococcus aureus 15; assay type: functional
[3] = system: Staphylococcus aureus; experiment: Selectivity ratio of MBC for bactericidal activity against methicillin resistant Staphylococcus aureus 16-30 to MIC for antibacterial activity against methicillin resistant Staphylococcus aureus 16-30; assay type: functional
[4] = system: Enterococcus faecium; experiment: Selectivity ratio of MBC for bactericidal activity against Vanomycin-resistant Enterococcus faecium ATCC 700221 to MIC for antibacterial activity against Vanomycin-resistant Enterococcus faecium ATCC 700221; assay type: functional
[5] = system: Staphylococcus aureus; experiment: Bactericidal activity against vancomycin intermediate and methicillin resistant Staphylococcus aureus ATCC 700698; assay type: functional
[6] = system: Staphylococcus epidermidis; experiment: Antibacterial activity against methicillin sensitive Staphylococcus epidermidis 17-13; assay type: functional
[7] = system: Staphylococcus aureus; experiment: Antibacterial activity against methicillin resistant Staphylococcus aureus 18-2; assay type: functional
[8] = system: Staphylococcus epidermidis; experiment: Antibacterial activity against methicillin resistant Staphylococcus epidermidis 19-2; assay type: functional
[9] = system: Enterococcus faecalis; experiment: Antibacterial activity against Vanomycin-resistant Enterococcus faecalis ATCC 51299; assay type: functional
[10] = system: Enterococcus faecium; experiment: Antibacterial activity against Vanomycin-resistant Enterococcus faecium 15-6; assay type: functional
[11] = system: Staphylococcus epidermidis; experiment: Antibacterial activity against methicillin resistant Staphylococcus epidermidis 19-1; assay type: functional
[12] = system: Staphylococcus epidermidis; experiment: Antibacterial activity against methicillin sensitive Staphylococcus epidermidis ATCC 12228; assay type: functional
[13] = Cytotoxicity against human HeLa cells by SRB assay; assay type: toxicity, cell-based
[14] = system: Staphylococcus aureus; experiment: Antibacterial activity against methicillin sensitive Staphylococcus aureus ATCC 29213; assay type: functional
[15] = system: Staphylococcus aureus; experiment: Antibacterial activity against methicillin resistant Staphylococcus aureus 16-30; assay type: functional
[16] = system: Staphylococcus aureus; experiment: Antibacterial activity against vancomycin intermediate and methicillin resistant Staphylococcus aureus ATCC 700699; assay type: functional
[17] = system: Enterococcus faecium; experiment: Antibacterial activity against Vanomycin-resistant Enterococcus faecium ATCC 700221; assay type: functional
[18] = system: Staphylococcus aureus; experiment: Bactericidal activity against methicillin resistant Staphylococcus aureus ATCC 33591; assay type: functional
[19] = system: Staphylococcus aureus; experiment: Bactericidal activity against methicillin resistant Staphylococcus aureus ATCC 43300; assay type: functional
[20] = Cytotoxicity against human HepG2 cells by SRB assay; assay type: toxicity, cell-based
[21] = system: Staphylococcus aureus; experiment: Antibacterial activity against methicillin resistant Staphylococcus aureus ATCC 43300; assay type: functional
[22] = system: Staphylococcus aureus; experiment: Antibacterial activity against methicillin resistant Staphylococcus aureus ATCC 33591; assay type: functional
[23] = system: Enterococcus faecium; experiment: Antibacterial activity against Vanomycin-resistant Enterococcus faecium ATCC 51559; assay type: functional
[24] = system: Staphylococcus aureus; experiment: Antibacterial activity against methicillin resistant Staphylococcus aureus 20-11; assay type: functional
[25] = system: Enterococcus faecium; experiment: Bactericidal activity against Vanomycin-resistant Enterococcus faecium ATCC 700221; assay type: functional
[26] = system: Enterococcus faecalis; experiment: Bactericidal activity against Vanomycin-resistant Enterococcus faecalis ATCC 51299; assay type: functional
[27] = system: Enterococcus faecalis; experiment: Antibacterial activity against Vanomycin-resistant Enterococcus faecalis ATCC 51575; assay type: functional
[28] = system: Staphylococcus aureus; experiment: Antibacterial activity against methicillin sensitive Staphylococcus aureus ATCC 33591; assay type: functional
[29] = system: Staphylococcus aureus; experiment: Antibacterial activity against vancomycin intermediate and methicillin resistant Staphylococcus aureus ATCC 700698; assay type: functional
[30] = system: Staphylococcus aureus; experiment: Selectivity ratio of MBC for bactericidal activity against methicillin resistant Staphylococcus aureus ATCC 33591 to MIC for antibacterial activity against methicillin resistant Staphylococcus aureus ATCC 33591; assay type: functional
[31] = system: Staphylococcus aureus; experiment: Antibacterial activity against methicillin sensitive Staphylococcus aureus 20-12; assay type: functional
[32] = system: Staphylococcus aureus; experiment: Selectivity ratio of MBC for bactericidal activity against vancomycin intermediate and methicillin resistant Staphylococcus aureus ATCC 700698 to MIC for antibacterial activity against vancomycin intermediate and methicillin resistant Staphylococcus aureus ATCC 700698; assay type: functional
[33] = system: Staphylococcus aureus; experiment: Bactericidal activity against methicillin resistant Staphylococcus aureus 16-30; assay type: functional
[34] = system: Enterococcus faecalis; experiment: Selectivity ratio of MBC for bactericidal activity against Vanomycin-resistant Enterococcus faecalis ATCC 51299 to MIC for antibacterial activity against Vanomycin-resistant Enterococcus faecalis ATCC 51299; assay type: functional

Row | Structure (SMILES) | Ratio [1] | MIC [2] | Ratio [3] | MIC [6] | MIC [7] | MIC [8] | MIC [9] | MIC [10] | MIC [11] | MIC [12] | IC50 [13] | MIC [14] | MIC [15] | MIC [16] | MIC [17] | MBC [18] | MBC [19] | IC50 [20] | MIC [21] | MIC [22] | further results
1 | O=C(Nc1ccc(OC(F)(F)F)cc1)Nc1ccc(Cl)c(C(F)(F)F)c1 | >255 | 1.25 µM (≈ 0.498 µg/mL) | >32 | 0.63 µM (≈ 0.251 µg/mL) | 0.3 µM (≈ 0.12 µg/mL) | 1.25 µM (≈ 0.498 µg/mL) | 2.51 µM (≈ 1 µg/mL) | 2.51 µM (≈ 1 µg/mL) | 1.25 µM (≈ 0.498 µg/mL) | 1.25 µM (≈ 0.498 µg/mL) | 9.31 µM | 0.63 µM (≈ 0.251 µg/mL) | 2.51 µM (≈ 1 µg/mL) | 0.15 µM (≈ 0.0598 µg/mL) | 1.25 µM (≈ 0.498 µg/mL) | > 161 µM | > 161 µM | 6.27 µM | 0.63 µM (≈ 0.251 µg/mL) | 1.25 µM (≈ 0.498 µg/mL) | Ratio [4]: >257; MBC [5]: > 161 µM; MIC [23]: 2.51 µM (≈ 1 µg/mL); MIC [24]: 0.63 µM (≈ 0.251 µg/mL); MBC [25]: > 321 µM; MBC [26]: > 321 µM; MIC [27]: 2.51 µM (≈ 1 µg/mL); MIC [28]: 1.25 µM (≈ 0.498 µg/mL); MIC [29]: 0.63 µM (≈ 0.251 µg/mL); Ratio [30]: >128; MIC [31]: 1.25 µM (≈ 0.498 µg/mL); Ratio [32]: >255; MBC [33]: > 80.3 µM; Ratio [34]: >128
2 | O=C(Nc1ccc2c(c1)OC(F)(F)O2)Nc1ccc(Cl)c(C(F)(F)F)c1 | 4 | 0.63 µM (≈ 0.249 µg/mL) | 8 | 1.27 µM (≈ 0.501 µg/mL) | 1.27 µM (≈ 0.501 µg/mL) | 1.27 µM (≈ 0.501 µg/mL) | 5.07 µM (≈ 2 µg/mL) | 5.07 µM (≈ 2 µg/mL) | 1.27 µM (≈ 0.501 µg/mL) | 1.27 µM (≈ 0.501 µg/mL) | 9.02 µM | 0.63 µM (≈ 0.249 µg/mL) | 0.63 µM (≈ 0.249 µg/mL) | 0.63 µM (≈ 0.249 µg/mL) | 10.1 µM (≈ 4 µg/mL) | 2.53 µM (≈ 0.999 µg/mL) | 2.53 µM (≈ 0.999 µg/mL) | 5.68 µM | 0.63 µM (≈ 0.249 µg/mL) | 0.63 µM (≈ 0.249 µg/mL) | MIC [23]: 10.1 µM (≈ 4 µg/mL); MIC [24]: 1.27 µM (≈ 0.501 µg/mL); MIC [27]: 10.1 µM (≈ 4 µg/mL); MIC [28]: 0.63 µM (≈ 0.249 µg/mL); MIC [29]: 0.63 µM (≈ 0.249 µg/mL); Ratio [30]: 4; MIC [31]: 1.27 µM (≈ 0.501 µg/mL); MBC [33]: 5.07 µM (≈ 2 µg/mL)
3 | O=C(Nc1ccc(Cl)c(C(F)(F)F)c1)Nc1ccc(Cl)c(C(F)(F)F)c1 | 8 | 1.2 µM (≈ 0.501 µg/mL) | 8 | 1.2 µM (≈ 0.501 µg/mL) | 1.2 µM (≈ 0.501 µg/mL) | 1.2 µM (≈ 0.501 µg/mL) | 4.79 µM (≈ 2 µg/mL) | 2.4 µM (≈ 1 µg/mL) | 1.2 µM (≈ 0.501 µg/mL) | 1.2 µM (≈ 0.501 µg/mL) | 2.69 µM | 1.2 µM (≈ 0.501 µg/mL) | 1.2 µM (≈ 0.501 µg/mL) | 1.2 µM (≈ 0.501 µg/mL) | 4.79 µM (≈ 2 µg/mL) | 4.79 µM (≈ 2 µg/mL) | 9.59 µM (≈ 4 µg/mL) | 7.72 µM | 1.2 µM (≈ 0.501 µg/mL) | 1.2 µM (≈ 0.501 µg/mL) | MIC [23]: 4.79 µM (≈ 2 µg/mL); MIC [24]: 1.2 µM (≈ 0.501 µg/mL); MIC [27]: 4.79 µM (≈ 2 µg/mL); MIC [28]: 1.2 µM (≈ 0.501 µg/mL); MIC [29]: 1.2 µM (≈ 0.501 µg/mL); Ratio [30]: 4; MIC [31]: 1.2 µM (≈ 0.501 µg/mL); MBC [33]: 9.59 µM (≈ 4 µg/mL)
